Measurements: the METLIN SMRT retention time set (Domingo-Almenara et al. 2019)

Assay: gradient 5% acetonitrile 3 min, to 50% in 2 min, to 85% in 15 min, held 3 min, 100 µL/min
Conditions: column: Zorbax Extend-C18 2.1 x 50 mm; eluents: water / acetonitrile, 0.1% formic acid
Summary of the method: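 Using water and acetonitrile that each contained 0.1% formic acid, mixtures of ~100 pure standards were separated at 100 μL/min on a Zorbax Extend-C18 column (2.1 × 50 mm, 1.8 μm). The HPLC fed a quadrupole time-of-flight mass spectrometer working in positive and negative ionization mode, with dead and dwell volumes of 40 μL and 900 μL. Data were acquired over 3 months. Retention time was read from computationally picked adduct peaks after manual inspection of each.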

Row | Structure (SMILES) | RP-LC retention time [s]
1 | Cc1ccc(N2CCN(S(=O)(=O)c3ccc(-c4nnc(C5CCC5)o4)o3)CC2)cc1 | 1120
2 | O=c1c2cc(-c3cccs3)nn2cnn1Cc1nc(-c2cccc(Br)c2)no1 | 1150
3 | COc1ccccc1CNC(=O)c1c(O)c2cccnc2[nH]c1=O | 933
4 | O=C(CCC1CCCN(c2cc(NC3CC3)ncn2)C1)NC1CCN(Cc2ccccc2)CC1 (stereo not drawn) | 570
5 | C1=CC2(C=C1)OC21CCC2(C=CC3(C2)OC3C2CCCCC2)CC1 (stereo not drawn) | 798
6 | COc1cccc(N2C=C(C(=O)N3CCOCC3)S(=O)(=O)c3ccccc32)c1 | 645
7 | O=c1n(Cc2ccc(F)cc2Cl)nc2ccc(S(=O)(=O)N3CCCC3)cn12 | 922
8 | Cc1ccc(N2CCC(NC(=O)c3ccc(Br)o3)C2=O)cc1C (stereo not drawn) | 882
9 | CCOCCCNC(=O)N1CCCC(c2nn[nH]n2)C1 (stereo not drawn) | 591
10 | CC(C)c1nc(CNC(=O)c2ccccc2)no1 | 707
11 | Cc1ccc(Cl)cc1N1CCN(C(=O)CCN2C(=O)C3C4C=CC(C4)C3C2=O)CC1 (stereo not drawn) | 989
12 | COc1ccc(OC)c(CNS(=O)(=O)c2cc(-c3nc(C)c(C)s3)sc2C)c1 | 1030
13 | O=C(NCCCN1CCOCC1)c1csc(N2CCN(c3ccccc3)CC2)n1 | 654
14 | O=C(Nc1cc(F)cc(F)c1)NC1CCN(c2ccccc2)C1=O (stereo not drawn) | 851
15 | COc1ccc(-c2nnc(Cc3nc(-c4ccc(SC)cc4)no3)o2)cc1 | 1040
16 | Cc1cc(C)c(NC(=O)CSc2nccc(N3CCN(c4cc(C)ccc4C)CC3)n2)c(C)c1 | 1080
17 | O=C1CN(S(=O)(=O)c2ccc(F)c(Cl)c2)CC2(CCCCC2)N1C1CCCC1 | 1240
18 | CN1[C@H]2C[C@H](OC(=O)[C@H](CO)c3ccccc3)C[C@@H]1[C@@H](O)C2 | 596
19 | Cc1nsc2ncc(C(=O)N3CCOCC3)c(N3CCC(C(=O)Nc4ccccc4F)CC3)c12 | 758
20 | CCOC(=O)c1noc2nc(C)nc(N3CCN(Cc4ccccc4)CC3)c12 | 616
21 | O=C(Nc1nc(-c2ccccc2)c(-c2ccccc2)o1)NC1CCCCC1 | 1320
22 | O=C(CCNc1c(-c2ccccc2)nc2cnccn12)NCc1cccc(F)c1 | 698

Row | Structure (SMILES) | RP-LC retention time [s]
23 | COC(=O)C1=CN(C2CC2)c2cc(N3CCCC(C)C3)c(F)cc2S1(=O)=O (stereo not drawn) | 1010
24 | CCCNC(=O)C1CCCN(c2ccc(SCC(=O)Nc3ccc(CC)cc3)nn2)C1 (stereo not drawn) | 656
25 | COc1ccc(-n2c(=O)c3sccc3n(Cc3nc(-c4cccc(OC)c4)no3)c2=O)cc1 | 949
26 | Cc1nn2c(CNS(=O)(=O)c3ccccc3C)c(-c3ccccc3)nc2s1 | 827
27 | COCCN1CCC(N2CCN(C(=O)C3(c4ccccc4)CC3)CC2)C1=O (stereo not drawn) | 542
28 | Cc1cc2c(=O)n(CC(=O)Nc3cccc(C(C)C)c3)ccc2s1 | 904
29 | COc1ccc(-c2nc3c(C)cccn3c2Nc2ccc(C)cc2)cc1 | 736
30 | O=C(NCc1ccc(F)cc1)NC1CCN(C(=O)N2C[C@H]3C[C@H](C2)[C@H]2CCCC(=O)N2C3)CC1 | 658
31 | O=S(=O)(c1ccc(-c2cc(C(F)(F)F)on2)o1)N1CCN(c2ncccn2)CC1 | 1060
32 | O=C(Cn1nc2c(cc1=O)CCCCC2)NCCc1nc(-c2ccccc2)cs1 | 843
33 | CCn1ncc(NC(=O)c2cccc(OC)c2)c(N2CCOCC2)c1=O | 788
34 | Cn1c(C(=O)N2CCN(c3ccccn3)CC2)cc2c(=O)n(C)c3ccccc3c21 | 562
35 | COc1ccc(NC(=O)c2cn(-c3cc(N4CCCC(C)C4)ncn3)cn2)cc1OC (stereo not drawn) | 973
36 | Cc1ccc2c(=O)c3cccc(CC(=O)O)c3oc2c1C | 860
37 | CN1C(=O)[C@H]2CN(Cc3cccc4[nH]ccc34)C[C@H]2C1=O | 552
38 | COc1ccccc1NC(=O)Cn1cnc2onc(C)c2c1=O | 748
39 | CCOc1ccc(-c2csc(C)n2)cc1S(=O)(=O)Nc1ccc(OC)cc1 | 940
40 | O=C(c1cc(S(=O)(=O)N2CCCC(C(=O)N3CCOCC3)C2)c[nH]1)N1CCCCCC1 (stereo not drawn) | 696
41 | CCc1ccc(-c2nc(C3CC(=O)N(c4ccc(F)cc4)C3)no2)cc1 (stereo not drawn) | 1110
42 | COc1ccc(CNC(=O)N2CCC(N3CCN(Cc4ccccc4)C(=O)C3=O)CC2)cc1 | 702
43 | COC(=O)c1cnc2nc(C)ccc2c1Nc1ccc(OC)c(OC)c1 | 630
44 | CC(=O)N1CCN(C(=O)C2CCCN(c3ccc(-c4ccc(C)c(C)c4)nn3)C2)CC1 (stereo not drawn) | 622

Row | Structure (SMILES) | RP-LC retention time [s]
45 | Cc1cc(F)ccc1NC(=O)C(C)C1CCN(C(=O)Nc2ccc(Cl)cc2)CC1 (stereo not drawn) | 974
46 | COc1cccc(S(=O)(=O)NCc2cccnc2-c2ccc(C)cc2)c1 | 695
47 | CC1CCN(S(=O)(=O)c2cccc(-c3cn4cc(Cl)ccc4n3)c2)CC1 | 1000
48 | CS(=O)(=O)N1CCC(C(=O)Nc2ccccc2Br)Oc2ccccc21 (stereo not drawn) | 996
49 | Cn1c(C2CCN(C(=O)c3cccc(Cl)c3)C2)nc2ccncc21 (stereo not drawn) | 554
50 | O=C(CN1CCCC1=O)NCc1ccc(F)cc1Cl | 656
51 | CCCNC(=O)N1CCC(CCOc2cccnc2)CC1 | 588
52 | CN(CCc1noc(-c2ccc(C(=O)N(C)Cc3ccco3)cc2)n1)C(=O)c1ccccc1 | 817
53 | O=C(C1CCN(c2cnc3nccnc3c2)CC1)N1CCN(c2ccccc2F)CC1 | 747
54 | COc1ccc(CN2C[C@@H]3C(=O)N(Cc4ccc5c(c4)OCO5)C(=O)[C@@H]3C2)cc1OC | 659
55 | CCCCC(=O)N1CCN(C(=O)c2cc3cc(Br)ccc3[nH]2)CC1 | 873
56 | COc1ccc(C)cc1NC(=O)N1CC(c2nc(C)no2)C2(CCOCC2)C1 (stereo not drawn) | 753
57 | Cc1cnc(CC2CCN(S(=O)(=O)c3ccc(C#N)cc3)C2)n1C1CC1 (stereo not drawn) | 654
58 | Cc1cccc(C)c1NC(=O)N1CCC(OC2CCN(Cc3ccccc3)CC2)CC1 | 661
59 | Cc1ccc(-n2ccc(=O)c(-c3nc(-c4cccc(C)c4)no3)n2)cc1 | 974
60 | O=C(c1cccs1)N1CCC(c2noc(-c3cnccn3)n2)C1 (stereo not drawn) | 678
61 | O=c1[nH]cc(S(=O)(=O)N2CCCC2)c(=O)[nH]1 | 568
62 | CN1C/C=C/CCOc2cccc(c2)-c2ccnc(n2)Nc2cccc(c2)C1 | 742
63 | Cc1cc(N2CCN(c3ccccn3)CC2)n2nc(C(F)(F)F)nc2n1 | 604
64 | Cc1ccc(Oc2nccnc2N2CCCC(C(=O)Nc3ccc(Br)c(C)c3)C2)cc1 (stereo not drawn) | 1290
65 | O=C1CCCc2cc(S(=O)(=O)N3CCC(C(=O)NCc4ccc(F)cc4)CC3)ccc2N1 | 724
66 | O=S(=O)(c1cc(-c2noc(C3CCCC3)n2)cs1)N(Cc1cccs1)C1CCCC1 | 933

Row | Structure (SMILES) | RP-LC retention time [s]
67 | O=C(NCc1cccnc1)c1ccc2c(c1)NC(=O)C1CCCCN21 (stereo not drawn) | 585
68 | CC(C)n1cnnc1C1CCN(C(=O)Cc2c[nH]c3ccccc23)CC1 | 626
69 | CCc1nnc2c(=O)n(CC(=O)NCc3ccc(F)cc3)c3cccnc3n12 | 698
70 | Cc1cc(Cl)ccc1S(=O)(=O)N1CC(c2nc(-c3ccncc3)no2)C1 | 931
71 | COc1ccc(C(=O)N2CCC3(CC2)NC(=O)c2cc(Cl)ccc2N3C)cc1OC | 742
72 | COc1ccc(C(=O)N2C[C@@H]3C[C@H](NC(=O)c4cccnc4)[C@H]2C3)c(OC)c1 | 605
73 | COc1ccc(NC(=O)N2CCC3(C2)C(=O)Nc2ccccc23)cc1OC (stereo not drawn) | 676
74 | CC1CCCN(C(=O)c2cn(-c3ccc(-c4nc(C5CC5)no4)cn3)cn2)C1 (stereo not drawn) | 840
75 | CN1CCC2(CC1)CN(C(=O)Cn1c(=O)oc3ccccc31)Cc1ccccc1O2 | 644
76 | CN(CC1(C)CCOCC1)C(=O)NCc1cccc(F)c1 | 731
77 | CN1c2ccccc2C(=O)NC12CCN(C(=O)c1ccc(F)c(F)c1)CC2 | 746
78 | Cc1cccc2nnc(N3CCC(C(=O)NCc4ccccc4F)CC3)n12 | 591
79 | CCC1Oc2ccc(S(=O)(=O)N3CCC(C(=O)NCc4ccc(OC)cc4)CC3)cc2NC1=O (stereo not drawn) | 839
80 | CN(C)c1ccc(CNC(=O)c2cc3n(n2)CC(C)(C(=O)NCc2ccc(F)cc2)N(C)C3=O)cc1 (stereo not drawn) | 610
81 | COc1ccc(CCC(=O)NCCCn2cccc2)cc1 | 757
82 | CN1c2cc(C(=O)N3CCN(c4ccccn4)CC3)ccc2C(=O)N2CCCCC21 (stereo not drawn) | 588
83 | O=C1NCCCCCCN(C(=O)Nc2ccc3c(c2)OCCO3)[C@H]2CCC[C@@H]12 | 749
84 | CC(C)CCNC(=O)c1nnc(-c2ccc(S(=O)(=O)N3CCCCC3)cc2)o1 | 1030
85 | CC(NC(=O)Cn1cc(C#N)c2ccccc21)c1ccc2c(c1)OCCCO2 (stereo not drawn) | 881
86 | Cc1ccc(CNC(=O)C2CCCN(c3cnc4nc(C)c(C)nc4c3)C2)cc1 (stereo not drawn) | 741
87 | Cc1ccccc1CNC(=O)C1(C)CCCN(C(=O)NCC(C)C)C1 (stereo not drawn) | 820
88 | O=C(NCc1ccccc1C(F)(F)F)c1cn2nc(Cl)ccc2n1 | 922
